According to patent publication US9133219B2, “Bicyclic antibiotics” (Basilea Pharmaceutica AG, priority 2009, dated 2015):
Values after ≈ are worked out from the molar mass of the structure shown. Read-outs that look alike come from different tables or passages of the source.

How the values were obtained:
Format in all cases: cell-based
[1] = tested on: Escherichia coli; assay: Anti-microbial activity assay, MIC by broth microdilution; details: for MIC: Escherichia coli
Method: (§1) Anti-Microbial Activity Assay.
(§2) The antibacterial activity of compounds is determined by the minimal inhibitory concentration (MIC) method. MICs for all bacteria except pneumococci and Haemophilus influenzae are obtained by broth microdilution with cation-adjusted Mueller-Hinton broth (CAMHB; BBL), according to CLSI guidelines (National Committee for Clinical Laboratory Standards. 2003. Methods for dilution antimicrobial susceptibility tests for bacteria that grow aerobically, 5th ed.; approved standard M7-A6. National Committee for Clinical Laboratory Standards, Wayne, Pa.), with the following modifications: (i) for pneumococci CAMHB is supplemented with 5% (^v/v) horse serum; (ii) for Haemophilus influenzae CAMHB is supplemented with 5% (^v/v) Fildes enrichment (BBL) (Pankuch, G. A., Hoellman, D. B., Lin, G., Bajaksouzian, S., Jacobs, M. R., and Appelbaum, P. C. 1998. Activity of HMR 3647 compared to those of five agents against Haemophilus influenzae and Moraxella catarrhalis by MIC determination and time-kill assay. Antimicrob. Agents Chemother. 42:3032-3034). Microtiter plates are incubated at 35° C. in ambient air for 20 to 24 h, then inspected using an illuminated microtiter plate reader fitted with a magnifying mirror (MIC 2000; Cooke Laboratory Products, Alexandria, Va.). Compounds of the present invention are tested against several bacteria strains comprising some Acinetobacter baumannii, Enterococcus faecalis, Enterococcus faecitan, Escherichia coli, Haemophilus influenzae, Klebsiella pneumoniae, Pseudomonas aeruginosa, Staphylococcus aureus, Staphylococcus epidermidis and Streptococcus pneumoniae.

[2] = tested on: Staphylococcus aureus; assay: as above; details: for MIC: Staphylococcus aureus
Method: as §1, §2

[3] = tested on: Staphylococcus epidermidis; assay: as above; details: strain ATCC14990; for MIC: Staphylococcus epidermidis
Method: as §1, §2

[4] = tested on: Streptococcus pneumoniae; assay: Anti-microbial activity assay, MIC by broth microdilution (CAMHB with 5% horse serum); details: for MIC: Streptococcus pneumoniae
Method: as §1, §2

[5] = tested on: Staphylococcus aureus and/or Staphylococcus epidermidis; assay: MIC summary statement, staphylococci; details: generally, for Staphylococcus aureus and/or Staphylococcus epidermidis
Method: as §1, §2

[6] = strain UB1005, read-out: MIC Escherichia coli UB1005
[7] = strain ATCC29213, read-out: MIC Staphylococcus aureus ATCC29213
[8] = strain ATCC49619, CAMHB with 5% horse serum, read-out: MIC Streptococcus pneumoniae ATCC49619
[9] = strain ATCC49619, CAMHB with 5% horse serum
[10] = E. coli UB1005, comparison of C4 and C3 position of the methoxyquinoline, same side chain, read-out: MIC
[11] = S. aureus ATCC29213, comparison of C4 and C3 position of the methoxyquinoline, same side chain, read-out: MIC
[12] = S. pneumoniae ATCC49619, comparison of C4 and C3 position of the methoxyquinoline, same side chain, read-out: MIC

Row | Compound | MIC [1, 6] [µg/mL] | MIC [2, 7] [µg/mL] | MIC [3] [µg/mL] | MIC [4, 8] [µg/mL] | also measured
1 | COc1ccc2ncc(OCCN3CCC(NC(=O)c4ccc5c(c4)NC(=O)CS5)CC3)nc2c1 [Example 1, 3-oxo-3,4-dihydro-2H-benzo[1,4]thiazine-6-carboxylic acid {1-[2-(7-methoxy-quinoxalin-2-yloxy)-ethyl]-piperidin-4-yl}-amide] | 8 (≈ 16.2 µM) | ≤ 2 | ≤ 2 | 4 (≈ 8.1 µM) | MIC [5]: ≤ 2 µg/mL
2 | COc1ccc2ncc(OCC[C@H]3CC[C@H](NC(=O)c4ccc5c(n4)NC(=O)CO5)CC3)cc2n1 [Example 3, 3-oxo-3,4-dihydro-2H-pyrido[3,2-b][1,4]oxazine-6-carboxylic acid {trans-4-[2-(6-methoxy-[1,5]naphthyridin-3-yloxy)-ethyl]-cyclohexyl}-amide] | > 32 | ≤ 2 | ≤ 2 | 16 (≈ 33.5 µM) | MIC [5]: ≤ 2 µg/mL
3 | COc1ccc2ncc(OCCN3CCC(N(C)Cc4ccc5c(c4)OCCO5)CC3)nc2c1 [Example 10, (2,3-dihydro-benzo[1,4]dioxin-6-ylmethyl)-{1-[2-(7-methoxy-quinoxalin-2-yloxy)-ethyl]-piperidin-4-yl}-methyl-amine] | > 32 | 4 (≈ 8.61 µM) | 8 (≈ 17.2 µM) | 8 (≈ 17.2 µM) | –
4 | CCC(Oc1cnc2ccc(OC)cc2n1)N1CCCC(NCc2ccc3c(c2)NC(=O)CS3)C1 (stereo not shown) [Example 11, 6-({1-[1-(7-methoxy-quinoxalin-2-yloxy)-propyl]-piperidin-3-ylamino}-methyl)-4H-benzo[1,4]thiazin-3-one] | 16 (≈ 32.4 µM) | 4 (≈ 8.1 µM) | 4 (≈ 8.1 µM) | 4 (≈ 8.1 µM) | –
5 | COc1cccc2ncc(OCCN3CCC(NC(=O)c4ccc5c(c4)NC(=O)CS5)CC3)nc12 [Example 12, 3-oxo-3,4-dihydro-2H-benzo[1,4]thiazine-6-carboxylic acid {1-[2-(8-methoxy-quinoxalin-2-yloxy)-ethyl]-piperidin-4-yl}-amide] | ≥ 32 | 4 (≈ 8.1 µM) | 4 (≈ 8.1 µM) | 16 (≈ 32.4 µM) | –
6 | O=C1CSc2ccc(C(=O)NC3CCN(CCOc4cnc5ccc([N+](=O)[O-])cc5n4)CC3)cc2N1 [Example 13, 3-oxo-3,4-dihydro-2H-benzo[1,4]thiazine-6-carboxylic acid {1-[2-(7-nitro-quinoxalin-2-yloxy)-ethyl]-piperidin-4-yl}-amide] | > 32 | 4 (≈ 7.87 µM) | > 32 | > 32 | –
7 | COc1ccc2ncc(OCCN3CCC(NC(=O)c4ccc5c(c4)NC(=O)CS5)CC3)nc2c1 [Example 21, 3-oxo-3,4-dihydro-2H-benzo[1,4]thiazine-6-carboxylic acid {1-[2-(7-methoxy-quinoxalin-2-yloxy)-ethyl]-piperidin-4-yl}-amide] | – | – | – | – | MIC Escherichia coli UB1005 ([1]; strain UB1005): ≧32 mg/L; MIC Staphylococcus aureus ATCC29213 ([2]; strain ATCC29213): 8 µg/mL (≈ 16.2 µM); MIC Staphylococcus epidermidis ATCC14990 [3]: 16 µg/mL (≈ 32.4 µM); MIC Streptococcus pneumoniae ATCC49619 [4, 9]: >32 µg/mL
8 | COc1ccc2ncc(OCCN3CC(NC(=O)c4ccc5c(c4)NC(=O)CS5)C3)nc2c1 [Example 22, 3-oxo-3,4-dihydro-2H-benzo[1,4]thiazine-6-carboxylic acid {1-[2-(7-methoxy-quinoxalin-2-yloxy)-ethyl]-azetidin-3-yl}-amide] | 16 (≈ 34.4 µM) | 4 (≈ 8.59 µM) | 4 (≈ 8.59 µM) | 32 (≈ 68.7 µM) | –
9 | COc1ccc2ncc(OCCCN3CCC(NC(=O)c4ccc5c(c4)NC(=O)CS5)C3)nc2c1 (stereo not shown) [Example 23] | – | – | – | – | MIC Escherichia coli UB1005 ([1]; strain UB1005): 16 µg/mL (≈ 32.4 µM); MIC Staphylococcus aureus ATCC29213 ([2]; strain ATCC29213): 4 µg/mL (≈ 8.1 µM); MIC Staphylococcus epidermidis ATCC14990 [3]: 4 µg/mL (≈ 8.1 µM); MIC Streptococcus pneumoniae ATCC49619 [4, 9]: 16 µg/mL (≈ 32.4 µM)
10 | COc1ccc2ncc(OCCN3CCC(CNC(=O)c4cc5c(cc4Cl)SCC(=O)N5)CC3)nc2c1 [Example 24, 7-chloro-3-oxo-3,4-dihydro-2H-benzo[1,4]thiazine-6-carboxylic acid {1-[2-(7-methoxy-quinoxalin-2-yloxy)-ethyl]-piperidin-4-ylmethyl}-amide] | 4 (≈ 7.38 µM) | 8 (≈ 14.8 µM) | 8 (≈ 14.8 µM) | 16 (≈ 29.5 µM) | –
11 | COc1ccc2ncc(OCCN3CCC(N(C)Cc4ccc5c(c4)NC(=O)CS5)CC3)nc2c1 [Example 25, 6-[({1-[2-(7-methoxy-quinoxalin-2-yloxy)-ethyl]-piperidin-4-yl}-methyl-amino)-methyl]-4H-benzo[1,4]thiazin-3-one] | 8 (≈ 16.2 µM) | 8 (≈ 16.2 µM) | 16 (≈ 32.4 µM) | 16 (≈ 32.4 µM) | –
12 | COc1ccc2ncc(OCCN3CCC(CNC(=O)c4cc(-c5cccs5)on4)C3)nc2c1 (stereo not shown) [Example 26, 5-thiophen-2-yl-isoxazole-3-carboxylic acid {1-[2-(7-methoxy-quinoxalin-2-yloxy)-ethyl]-pyrrolidin-3-ylmethyl}-amide] | > 32 | 4 (≈ 8.34 µM) | 16 (≈ 33.4 µM) | 8 (≈ 16.7 µM) | –
13 | COc1ccc2ncc(OCCCN3CCC(CNC(=O)c4cc5c(cc4Cl)SCCN5)C3)nc2c1 (stereo not shown) [Example 27, 7-chloro-3,4-dihydro-2H-benzo[1,4]thiazine-6-carboxylic acid {1-[3-(7-methoxy-quinoxalin-2-yloxy)-propyl]-pyrrolidin-3-ylmethyl}-amide] | 16 (≈ 30.3 µM) | 8 (≈ 15.1 µM) | 32 (≈ 60.6 µM) | 32 (≈ 60.6 µM) | –
14 | COc1ccc2ncc(C(=O)OC[C@H]3CC[C@H](N(C)Cc4ccc5c(c4)OCCO5)CC3)cc2c1 [Example 32, 6-methoxy-quinoline-3-carboxylic acid trans-4-[(2,3-dihydro-benzo[1,4]dioxin-6-ylmethyl)-methyl-amino]-cyclohexylmethyl ester] | > 32 | 8 (≈ 16.8 µM) | 16 (≈ 33.6 µM) | 32 (≈ 67.1 µM) | –
15 | COc1ccc2ncc(C(=O)OC[C@H]3CC[C@H](NCc4ccc5c(c4)OCCO5)CC3)cc2c1 [Example 33, 6-methoxy-quinoline-3-carboxylic acid trans-4-[(2,3-dihydro-benzo[1,4]dioxin-6-ylmethyl)-amino]-cyclohexylmethyl ester] | > 32 | 4 (≈ 8.65 µM) | 8 (≈ 17.3 µM) | 8 (≈ 17.3 µM) | –
16 | CCN(Cc1ccc2c(c1)OCCO2)[C@H]1CC[C@H](COC(=O)c2cnc3ccc(OC)cc3c2)CC1 [Example 34, 6-methoxy-quinoline-3-carboxylic acid trans-4-[(2,3-dihydro-benzo[1,4]dioxin-6-ylmethyl)-ethyl-amino]-cyclohexylmethyl ester] | > 32 | 8 (≈ 16.3 µM) | > 32 | > 32 | –
17 | COc1ccc2ncc(SCCN3CCC(NCc4ccc5c(c4)NC(=O)CO5)CC3)nc2c1 [Example 40] | – | – | – | – | MIC Escherichia coli UB1005 ([1]; strain UB1005): ≦2 mg/L; MIC Staphylococcus aureus ATCC29213 ([2]; strain ATCC29213): ≦2 mg/L; MIC Staphylococcus epidermidis ATCC14990 [3]: ≦2 mg/L; MIC Streptococcus pneumoniae ATCC49619 [4, 9]: ≦2 mg/L
18 | COc1ccc2nccc(OC[C@H]3CC[C@H](NCc4ccc5c(c4)OCCO5)CC3)c2c1 [reference compound] | – | – | – | – | MIC [1, 10]: 16 µg/mL (≈ 36.8 µM); MIC [2, 11]: 0.5 µg/mL (≈ 1.15 µM); MIC [4, 12]: 0.5 µg/mL (≈ 1.15 µM)
19 | COc1ccc2nccc(OC[C@H]3CC[C@H](NCc4ccc5c(c4)NC(=O)CO5)CC3)c2c1 [reference compound] | – | – | – | – | MIC [1, 10]: 1 µg/mL (≈ 2.23 µM); MIC [2, 11]: 1 µg/mL (≈ 2.23 µM); MIC [4, 12]: 2 µg/mL (≈ 4.47 µM)
20 | COc1ccc2ncc(OC[C@H]3CC[C@H](NCc4ccc5c(c4)OCCO5)CC3)cc2c1 [reference compound] | – | – | – | – | MIC [1, 10]: > 32 µg/mL; MIC [2, 11]: > 32 µg/mL; MIC [4, 12]: 32 µg/mL (≈ 73.6 µM)
21 | COc1ccc2ncc(OC[C@H]3CC[C@H](NCc4ccc5c(c4)NC(=O)CO5)CC3)cc2c1 [reference compound] | – | – | – | – | MIC [1, 10]: > 32 µg/mL; MIC [2, 11]: > 32 µg/mL; MIC [4, 12]: 32 µg/mL (≈ 71.5 µM)
